Data as given in PMC4384708, “Molecular imaging of angiogenesis after myocardial infarction by ^111In-DTPA-cNGR and ^99mTc-sestamibi dual-isotope myocardial SPECT” (EJNMMI Research, 2015).
One block for each molecule: values may come before it.

Columns and labels:
[1] = ^99mTc-sestamibi perfusion uptake (SUV) per AHA 17 segment, in vivo dual-isotope micro-SPECT; set-up: species or system Swiss mice
Description: MI was induced in 10- to 12-week old male Swiss mice by ligation of the left anterior descending coronary artery (LAD) (n = 7), as previously described. The angiogenesis imaging protocol was performed 7 days after the LAD ligation. A group of non-operated male Swiss mice (n = 5) was used as control. A variable number of animals were available for analysis per experiment. For SPECT scans, seven MI mice and five control mice were used while for biodistribution purposes ≥5 MI mice and ≥4 control mice were used. Furthermore, a group of six 10- to 12-week old male Swiss mice were bilaterally, subcutaneously implanted in the flanks with Matrigel (Table 1). […] All animals were held under the guidelines of the animal care facility (Maastricht University). All animal experiments were approved by the Committee for Animal Welfare of Maastricht University.
Mice were anesthetised with isoflurane (induction 2.5%; maintenance; 1.5%), a catheter was placed in the tail vein and the animals were positioned in the micro-SPECT camera (MiLabs, Utrecht, The Netherlands).
U-SPECT-II reconstruction software version 2.38 (MiLabs, Utrecht, The Netherlands) was used to reconstruct images. ^99mTc and ^111In images were reconstructed by selecting the photopeak (PP) and background (BG) windows as indicated in Figure 1.
To allow quantification of radiotracer uptake in vivo, conversion factors (CFs) were determined for the 0.6-mm collimator system in a representative phantom (20 ml) for ^99mTc and/or ^111In. During the SPECT reconstruction, the total amount of counts was distributed over the different voxels, resulting in a counts/voxel expression for the average concentration of counts. Taking into account the voxel volume (Vv), the CFs are calculated using equation (a):a ConversionfactorMBq=ActivityconcentrationMBq/ml/SPECTcountspervoxel/Vvml
The PMOD 2.95 cardiac tool PCARD (PMOD Technologies, Zürich, Switzerland) was used to segment the heart in the 17-segment model according to the American Heart Association (AHA) guidelines. For both the ^99mTc-sestamibi and ^111In-DTPA-cNGR images, the uptake was measured for each segment and expressed as mean standardised uptake value (SUVmean) using equation (b).b SUV=SPECTcountspervoxel×CF/VvMBq/ml×Bodyweightg/InjecteddoseMBq
For body weight, we assumed that 1 g of body weight equalled 1 ml.

[2] = tested on: CD13; details: cNGR tripeptide vs. linear entity; cited from earlier work
Source text: In this study, we designed and developed a CD13 molecular imaging probe that allowed sensitive visualisation using micro-SPECT imaging. […] Thereto, the cNGR tripeptide was conjugated with diethylene triamine pentaacetic acid (DTPA), radiolabeled with ^111In and evaluated in a mouse model of myocardial infarction in combination with ^99mTc-sestamibi in dual-isotope micro-SPECT imaging. In order to determine binding spec ...

SUV ([1]; segment 1. Basal anterior, MI mice n = 7, 7 days after LAD ligation, mean ± S.E.M.): 1.94 ± 0.36
SUV ([1]; segment 1. Basal anterior, healthy control mice n = 5, mean ± S.E.M.): 1.87 ± 0.34
SUV ([1]; segment 2. Basal anteroseptal, MI mice n = 7, 7 days after LAD ligation, mean ± S.E.M.): 1.72 ± 0.33
SUV ([1]; segment 2. Basal anteroseptal, healthy control mice n = 5, mean ± S.E.M.): 1.63 ± 0.28
SUV ([1]; segment 3. Basal inferoseptal, MI mice n = 7, 7 days after LAD ligation, mean ± S.E.M.): 1.38 ± 0.28
SUV ([1]; segment 3. Basal inferoseptal, healthy control mice n = 5, mean ± S.E.M.): 1.54 ± 0.29
SUV ([1]; segment 4. Basal inferior, MI mice n = 7, 7 days after LAD ligation, mean ± S.E.M.): 1.64 ± 0.24
SUV ([1]; segment 4. Basal inferior, healthy control mice n = 5, mean ± S.E.M.): 1.77 ± 0.28
SUV ([1]; segment 5. Basal inferolateral, MI mice n = 7, 7 days after LAD ligation, mean ± S.E.M.): 1.78 ± 0.31
SUV ([1]; segment 5. Basal inferolateral, healthy control mice n = 5, mean ± S.E.M.): 1.68 ± 0.30
SUV ([1]; segment 6. Basal anterolateral, MI mice n = 7, 7 days after LAD ligation, mean ± S.E.M.): 2.11 ± 0.39
SUV ([1]; segment 6. Basal anterolateral, healthy control mice n = 5, mean ± S.E.M.): 1.95 ± 0.33
SUV ([1]; segment 7. Mid anterior, MI mice n = 7, 7 days after LAD ligation, mean ± S.E.M.): 1.18 ± 0.26
SUV ([1]; segment 7. Mid anterior, healthy control mice n = 5, mean ± S.E.M.): 1.80 ± 0.30
SUV ([1]; segment 8. Mid anteroseptal, MI mice n = 7, 7 days after LAD ligation, mean ± S.E.M.): 1.73 ± 0.27
SUV ([1]; segment 8. Mid anteroseptal, healthy control mice n = 5, mean ± S.E.M.): 1.67 ± 0.28
SUV ([1]; segment 9. Mid inferoseptal, MI mice n = 7, 7 days after LAD ligation, mean ± S.E.M.): 1.82 ± 0.30
SUV ([1]; segment 9. Mid inferoseptal, healthy control mice n = 5, mean ± S.E.M.): 1.80 ± 0.34
SUV ([1]; segment 10. Mid inferior, MI mice n = 7, 7 days after LAD ligation, mean ± S.E.M.): 1.85 ± 0.31
SUV ([1]; segment 10. Mid inferior, healthy control mice n = 5, mean ± S.E.M.): 1.72 ± 0.28
SUV ([1]; segment 11. Mid inferolateral, MI mice n = 7, 7 days after LAD ligation, mean ± S.E.M.): 1.60 ± 0.32
SUV ([1]; segment 11. Mid inferolateral, healthy control mice n = 5, mean ± S.E.M.): 1.71 ± 0.25
SUV ([1]; segment 12. Mid anterolateral, MI mice n = 7, 7 days after LAD ligation, mean ± S.E.M.): 1.15 ± 0.37
SUV ([1]; segment 12. Mid anterolateral, healthy control mice n = 5, mean ± S.E.M.): 2.03 ± 0.32
SUV ([1]; segment 13. Apical anterior, MI mice n = 7, 7 days after LAD ligation, mean ± S.E.M.): 0.49 ± 0.10
SUV ([1]; segment 13. Apical anterior, healthy control mice n = 5, mean ± S.E.M.): 1.64 ± 0.30
SUV ([1]; segment 14. Apical septal, MI mice n = 7, 7 days after LAD ligation, mean ± S.E.M.): 1.55 ± 0.25
SUV ([1]; segment 14. Apical septal, healthy control mice n = 5, mean ± S.E.M.): 1.82 ± 0.34
SUV ([1]; segment 15. Apical inferior, MI mice n = 7, 7 days after LAD ligation, mean ± S.E.M.): 1.36 ± 0.35
SUV ([1]; segment 15. Apical inferior, healthy control mice n = 5, mean ± S.E.M.): 1.67 ± 0.28
SUV ([1]; segment 16. Apical lateral, MI mice n = 7, 7 days after LAD ligation, mean ± S.E.M.): 0.64 ± 0.24
SUV ([1]; segment 16. Apical lateral, healthy control mice n = 5, mean ± S.E.M.): 1.60 ± 0.30
SUV ([1]; segment 17. Apex, MI mice n = 7, 7 days after LAD ligation, mean ± S.E.M.): 0.39 ± 0.17
SUV ([1]; segment 17. Apex, healthy control mice n = 5, mean ± S.E.M.): 1.47 ± 0.34
Molecule: [C-]#[N+]CC(C)(C)OC.[C-]#[N+]CC(C)(C)OC.[C-]#[N+]CC(C)(C)OC.[C-]#[N+]CC(C)(C)OC.[C-]#[N+]CC(C)(C)OC.[C-]#[N+]CC(C)(C)OC.[Tc] [^99mTc-sestamibi]

Molecule: oxidised NAc-Cys-Asn-Gly-Arg-Cys-Gly-Gly-Lys-NH2 (disulfide) [cNGR, cyclic(NAc-Cys-Asn-Gly-Arg-Cys-Gly-Gly-Lys), disulfide-cyclised CD13-homing peptide]
targeting efficacy relative to the linear entity [2]: tenfold higher
